Values quoted from earlier work as cited in US12590297B2, “Differentiation method” (Koninklijke Nederlandse Akademie Van Wetenschappen, priority 2016, dated 2026).

Experiments:
glucocorticoid receptor = biological target: T1, glucocorticoid receptor (Homo sapiens, UniProt P04150); conditions: in comparison to cortisol; oral dosing; cited from earlier work
T1 sequence (P04150 1-777): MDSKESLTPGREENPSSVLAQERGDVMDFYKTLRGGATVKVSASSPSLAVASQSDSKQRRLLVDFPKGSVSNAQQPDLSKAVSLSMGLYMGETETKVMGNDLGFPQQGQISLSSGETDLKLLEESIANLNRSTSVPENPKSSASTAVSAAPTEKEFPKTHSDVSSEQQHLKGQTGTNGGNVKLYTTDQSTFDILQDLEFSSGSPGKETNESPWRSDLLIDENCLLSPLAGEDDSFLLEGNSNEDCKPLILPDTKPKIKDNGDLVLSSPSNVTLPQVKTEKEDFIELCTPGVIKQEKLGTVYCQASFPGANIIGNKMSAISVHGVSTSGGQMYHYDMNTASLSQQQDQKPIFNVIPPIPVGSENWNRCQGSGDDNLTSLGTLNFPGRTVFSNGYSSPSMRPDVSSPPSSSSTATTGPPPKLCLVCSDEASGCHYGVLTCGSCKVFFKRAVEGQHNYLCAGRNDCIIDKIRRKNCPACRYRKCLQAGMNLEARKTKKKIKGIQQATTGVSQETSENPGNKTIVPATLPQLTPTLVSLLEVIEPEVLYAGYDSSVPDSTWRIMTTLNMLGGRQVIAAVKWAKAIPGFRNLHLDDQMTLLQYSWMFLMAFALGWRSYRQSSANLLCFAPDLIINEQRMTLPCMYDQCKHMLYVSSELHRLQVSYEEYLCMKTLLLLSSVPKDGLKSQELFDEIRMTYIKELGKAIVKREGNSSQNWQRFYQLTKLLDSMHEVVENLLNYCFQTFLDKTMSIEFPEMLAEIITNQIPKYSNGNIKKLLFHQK

ALK5 (TGF-βR1) = biological target: T2, ALK5 (TGF-βR1) (Homo sapiens, UniProt P36897); conditions: high concentrations; p38 MAP kinase inhibitor; cited from earlier work
T2 sequence (P36897 34-503): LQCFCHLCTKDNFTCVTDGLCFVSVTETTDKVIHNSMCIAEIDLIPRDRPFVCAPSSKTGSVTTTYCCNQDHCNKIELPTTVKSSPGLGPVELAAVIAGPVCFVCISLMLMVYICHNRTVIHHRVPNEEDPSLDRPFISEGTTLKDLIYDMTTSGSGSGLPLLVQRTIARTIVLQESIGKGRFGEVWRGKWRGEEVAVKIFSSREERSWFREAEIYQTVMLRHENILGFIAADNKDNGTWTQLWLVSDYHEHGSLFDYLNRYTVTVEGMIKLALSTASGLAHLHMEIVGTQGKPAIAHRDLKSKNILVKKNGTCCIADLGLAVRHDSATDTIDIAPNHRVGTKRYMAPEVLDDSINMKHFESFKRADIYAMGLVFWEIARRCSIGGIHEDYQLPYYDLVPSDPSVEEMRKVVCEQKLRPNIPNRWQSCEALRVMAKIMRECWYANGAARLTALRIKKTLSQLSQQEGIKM

| SMILES | Glucocorticoid potency (glucocorticoid receptor) | concentration at which thought to inhibit ALK5 (ALK5 (TGF-βR1)) [µM] |
| --- | --- | --- |
| C[C@]12C=CC(=O)C=C1CC[C@H]1[C@@H]3C[C@@H](O)[C@](O)(C(=O)CO)[C@@]3(C)C[C@H](O)[C@@]12F [Triamcinolone] | 5 | – |
| C[S+]([O-])c1ccc(-c2nc(-c3ccc(F)cc3)c(-c3ccncc3)[nH]2)cc1 (centres unmarked) [SB-203580] | – | ≥ 10 |
| C[C@]12CCC(=O)C=C1CC[C@@H]1[C@@H]2C(=O)C[C@@]2(C)[C@H]1CC[C@]2(O)C(=O)CO [Cortisone] | 0.8 | – |
| C[C@]12CCC(=O)C=C1CC[C@@H]1[C@@H]2[C@@H](O)C[C@@]2(C)[C@H]1CC[C@]2(O)C(=O)CO [Cortisol (hydrocortisone), Cortisol] | 1 | – |
| C[C@]12C=CC(=O)C=C1CC[C@@H]1[C@@H]2[C@@H](O)C[C@@]2(C)[C@H]1CC[C@]2(O)C(=O)CO [Prednisolone] | 4 | – |
